Results on 1 compound are retold here after US20260015333A1, “COMPOUNDS AND METHODS FOR INHIBITION OF THE EVOLUTION OF […]” (priority 2022, published 2026).

The target in one series is Mfd (Salmonella typhimurium, UniProt Q8ZQ01). As to the kind of experiment: biochemical. On the set-up: species or system S. typhimurium. How it is done: (§1) FIGS. 2A-2D depict how ARM-1 affects Mfd's biochemical activity. FIG. 2A depicts how the kd of ARM-1 was determined using microscale thermophoresis. Data shown represent a minimum of three independent experiments. FIG. 2B depicts a NADH-coupled ATPase assay. ATP hydrolysis by Mfd was coupled to NADH oxidation. Phosphoenolpyruvate is converted to pyruvate by pyruvate kinase, transferring a phosphate group onto ADP, which is only present in the reaction following ATP hydrolysis by Mfd. Pyruvate is then converted to lactate by lactate dehydrogenase, oxidizing NADH to NAD^+. Absorbance at 340 nm by NADH is used to monitor the reaction. Data shown represent a minimum of 3 biological replicates. FIG. 2C depicts a transcription roadblock assay. A P32-labled 176 bp PCR fragment was incubated with E. coli RNAP along with saturating concentrations of ATP, GTP, and UTP. 100 nM S. typhimurium ST19 Mfd preincubated with indicated concentrations of ARM-1 was added and the reaction allowed to proceed for 6 minutes. DNA products were then resolved on a polyacrylamide gel and analyzed by phosphorimaging. […] Quantification of these gels is shown below each lane. […]
ATPase assays were performed as described in Kiiansita et al., 2003. […] To start reaction, varying quantities of ATP were added and absorbance at 340 nm was measured every 60 seconds for 1 hour in an Epoch2 microplate spectrophotometer (BioTek). […]

In the next series the test system is HeLa cells. Briefly: Mammalian cell cytotoxicity (CellTox Green). Format: cell-based. Conditions: during the timeframe of the infection experiment. On the procedure:
FIGS. 9A-9B depict the cytotoxicity of ARM-1 against indicated mammalian cell lines. FIG. 9A depicts toxicity reported from original Calibr screen data against HEK293T and HepG2 cell lines. FIG. 9B depicts toxicity determined using Promega CellTox reagents following 8 hours of exposure of HeLa, Caco-2, and HEK293 cells to varying concentrations of ARM-1. Relative fluorescent units (RFUs) reported relative to solvent and no substrate controls.
Cytotoxicity of ARM-1 against HeLa, Caco-2, and HEK293 cells was determined using CellTox Green Cytotoxicity Assay (Promega) according to manufacturer instructions. ARM-1 was diluted in DMSO and applied to the culture such that final concentrations of DMSO were less than 0.05%. Reported toxicity is relative to a DMSO only control. Cells were incubated with ARM-1 for 24 hours prior to addition of reporter dye. Fluorescence was read on a BioTek Synergy Neo plate reader.

Another series concerns S. typhimurium ST19 Mfd. Briefly: RNAP displacement (transcription roadblock) assay. The class given is biochemical. Particulars: Mfd 100 nM pre-incubated with ARM-1 (12.5 μM); without ARM-1 EC/IC=0.33. On the procedure:
as §1
Mfd translocates along double-stranded DNA and dislodges stalled RNAP complexes. […] When quantified, a ratio of EC to IC of approximately 1 was observed, which was consistent with prior work. […]

SMILES strings stand for the structures.

Mfd, sequence (Q8ZQ01 entry or part of it): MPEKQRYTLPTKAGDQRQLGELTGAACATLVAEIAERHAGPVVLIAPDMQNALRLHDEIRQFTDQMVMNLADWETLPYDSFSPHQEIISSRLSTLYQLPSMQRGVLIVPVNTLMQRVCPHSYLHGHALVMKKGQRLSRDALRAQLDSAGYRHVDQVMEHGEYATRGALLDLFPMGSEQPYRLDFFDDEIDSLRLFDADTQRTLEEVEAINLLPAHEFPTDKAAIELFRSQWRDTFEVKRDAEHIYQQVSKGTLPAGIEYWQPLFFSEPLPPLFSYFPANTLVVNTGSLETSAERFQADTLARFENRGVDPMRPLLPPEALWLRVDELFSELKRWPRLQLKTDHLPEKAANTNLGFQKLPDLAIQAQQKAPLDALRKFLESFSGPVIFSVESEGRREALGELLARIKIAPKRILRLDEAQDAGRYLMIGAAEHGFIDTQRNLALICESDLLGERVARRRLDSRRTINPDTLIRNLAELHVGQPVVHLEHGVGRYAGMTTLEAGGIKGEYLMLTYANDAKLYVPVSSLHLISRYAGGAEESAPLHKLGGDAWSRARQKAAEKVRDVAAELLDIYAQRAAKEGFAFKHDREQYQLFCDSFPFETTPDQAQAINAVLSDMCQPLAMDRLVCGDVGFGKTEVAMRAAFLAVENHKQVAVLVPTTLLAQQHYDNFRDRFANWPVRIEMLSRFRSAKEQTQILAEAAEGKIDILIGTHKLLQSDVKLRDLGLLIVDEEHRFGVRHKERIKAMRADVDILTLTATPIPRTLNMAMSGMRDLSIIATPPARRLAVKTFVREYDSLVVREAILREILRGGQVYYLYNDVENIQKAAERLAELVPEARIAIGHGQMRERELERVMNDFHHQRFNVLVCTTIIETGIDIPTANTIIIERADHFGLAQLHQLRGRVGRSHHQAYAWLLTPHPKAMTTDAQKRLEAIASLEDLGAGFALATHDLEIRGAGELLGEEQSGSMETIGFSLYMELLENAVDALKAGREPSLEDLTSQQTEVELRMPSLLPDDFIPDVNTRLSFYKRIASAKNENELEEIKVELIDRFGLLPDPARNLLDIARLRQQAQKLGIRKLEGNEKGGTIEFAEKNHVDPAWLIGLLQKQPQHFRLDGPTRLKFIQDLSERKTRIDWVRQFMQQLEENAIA

For the compound `Cc1cc(Br)ccc1-c1ccc(CNCCCN(C)C)o1` [ARM-1, N^1-((5-(4-bromo-2-methylphenyl)furan-2-yl)methyl)-N^3,N^3-dimethylpropane-1,3-diamine], the “ATP hydrolysis by Mfd” value at Mfd (6.25 μM to 50 μM ARM-1, ratios of 125 to 1000 ARM-1 per Mfd) is “dose dependent increase”. Besides, the fold induction at 50 µM on Mfd (50 μM ARM-1, read-out: ATPase activity enhancement) is around 3. In the series with HeLa cells, the “cytotoxic effects on HeLa cells” value is reported as “no cytotoxic effects”. Also, the “EC/IC (elongation complex to initiation complex ratio)” value in the series with S. typhimurium ST19 Mfd is on record as 0.46.
